Source: BindingDB's records for doi:10.1124/jpet.103.051797 (Institut De Recherches Servier, 2003)
pKi: −log10 of the molar value.

How the values were obtained:
[1] = target: 5-hydroxytryptamine receptor 2A (Rattus norvegicus, UniProt P14842)
[2] = target: T1, 5-hydroxytryptamine receptor 2C (Sus scrofa, UniProt K7GSR7)
T1 sequence (K7GSR7 whole entry): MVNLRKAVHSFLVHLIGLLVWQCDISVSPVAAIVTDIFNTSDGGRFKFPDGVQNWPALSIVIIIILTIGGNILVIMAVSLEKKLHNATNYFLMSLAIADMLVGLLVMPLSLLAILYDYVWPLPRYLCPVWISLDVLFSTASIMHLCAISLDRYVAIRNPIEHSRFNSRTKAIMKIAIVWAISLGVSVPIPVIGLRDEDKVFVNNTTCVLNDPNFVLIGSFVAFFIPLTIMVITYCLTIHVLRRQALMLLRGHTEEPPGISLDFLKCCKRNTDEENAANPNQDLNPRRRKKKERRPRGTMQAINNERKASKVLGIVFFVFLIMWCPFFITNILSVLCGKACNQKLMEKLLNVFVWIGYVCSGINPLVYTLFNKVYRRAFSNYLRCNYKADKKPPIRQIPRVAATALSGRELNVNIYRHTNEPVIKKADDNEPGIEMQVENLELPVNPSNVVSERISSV

[3] = target: 5-hydroxytryptamine receptor 2B (Homo sapiens, UniProt P41595)
Chain of 5-hydroxytryptamine receptor 2B (P41595 whole entry): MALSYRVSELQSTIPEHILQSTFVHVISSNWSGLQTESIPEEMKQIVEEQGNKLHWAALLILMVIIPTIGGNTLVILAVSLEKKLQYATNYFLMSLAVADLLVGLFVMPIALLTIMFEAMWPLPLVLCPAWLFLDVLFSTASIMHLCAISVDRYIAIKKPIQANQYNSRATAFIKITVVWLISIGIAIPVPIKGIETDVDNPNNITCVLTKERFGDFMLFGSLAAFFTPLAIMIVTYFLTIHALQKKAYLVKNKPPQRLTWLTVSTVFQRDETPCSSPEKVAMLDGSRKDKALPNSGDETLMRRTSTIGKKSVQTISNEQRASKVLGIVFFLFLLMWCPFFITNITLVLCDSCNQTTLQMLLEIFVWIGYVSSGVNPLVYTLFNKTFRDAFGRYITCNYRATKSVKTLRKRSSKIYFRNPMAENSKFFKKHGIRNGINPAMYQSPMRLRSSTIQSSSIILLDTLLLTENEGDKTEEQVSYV

Chain of 5-hydroxytryptamine receptor 2A (P14842 whole entry): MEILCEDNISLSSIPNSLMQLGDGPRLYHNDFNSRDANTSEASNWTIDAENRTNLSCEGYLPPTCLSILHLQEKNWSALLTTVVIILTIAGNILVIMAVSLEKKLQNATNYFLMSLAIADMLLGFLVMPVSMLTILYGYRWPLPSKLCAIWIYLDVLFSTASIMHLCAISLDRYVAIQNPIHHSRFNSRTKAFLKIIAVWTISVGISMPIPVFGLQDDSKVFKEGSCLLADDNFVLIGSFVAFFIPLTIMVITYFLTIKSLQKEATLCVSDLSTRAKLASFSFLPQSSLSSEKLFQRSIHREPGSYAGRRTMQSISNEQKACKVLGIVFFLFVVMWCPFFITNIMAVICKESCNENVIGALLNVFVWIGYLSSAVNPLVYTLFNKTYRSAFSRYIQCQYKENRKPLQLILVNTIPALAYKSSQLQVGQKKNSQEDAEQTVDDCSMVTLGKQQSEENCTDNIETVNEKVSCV

Row | SMILES | pKi [1] | pKi [2] | pKi [3]
1 | COc1ccc2[nH]cc(CCNC(C)=O)c2c1 | < 5.00 | < 5.00 | –
2 | COc1ccc2cccc(CCNC(C)=O)c2c1 [S 20098] | < 5.00 | 6.39 | 6.59
